Here are results for three molecules from patent US20190151210A1, “METHOD AND COMPOSITION FOR TREATING SKIN CONDITIONS” (L'OREAL, priority 2016, published 2019).

Where “and” joins values, the source holds several entries; their conditions need not be identical. Identical values can stand only once.

The nature of this series: solubility of active ingredients in base oil composition. Format: physicochemical. To be noted: for Loading (wt %), soluble in base oil composition: loading not marked with *. The source says: The booster compositions described above include the active ingredients noted specifically for the categorical skin condition (e.g., skin brightness, skin wrinkles, visibility of pores, skin texture, and/or skin redness). In addition, the compositions cosolubilize to permit easy dispersion of the booster composition into the base oil composition. In addition to easy dispersion, the system according to the present disclosure ensures rapid homogeneity of the final products after combination of booster and base components by the consumer. In each of the booster compositions, at least one of the ingredients in the base oil composition are included in the booster compositions. For example, in one embodiment, squalane is included in each of the booster compositions. In one particularly advantageous embodiment, greater than about 20% or greater than about 25% or greater than about 30% or greater than about 35%, by weight of total composition squalane is included in each of the booster compositions. Visual assessment may be conducted to ensure cosolubility. For example, cosolubility may be determined by visual determination of incompatibility, immicible components, precipitates or other visual indicators indicating a lack of cosolubility.

Regarding `CCCCCCCCC(CCCCCC)C(=O)OC[C@H](OC(=O)C(CCCCCC)CCCCCCCC)[C@H]1OC(=O)C(OC(=O)C(CCCCCC)CCCCCCCC)=C1OC(=O)C(CCCCCC)CCCCCCCC` (stereo partly shown) [Ascorbyl Tetraisopalmitate], the “Loading (wt %), soluble in base oil composition” value (“Loading (wt %), soluble” for short) was 40% wt % and 50% wt % and 60% wt %. Consider `CC(c1ccccc1)c1ccc(O)cc1O` (stereo not shown) [Phenylethyl Resorcinol], for which the “Loading (wt %), soluble” value is 5% wt % and 10% wt % and 15% wt %. In the case of `O=C(O)c1ccccc1O` [Salicylic Acid], the “Loading (wt %), soluble” value is given as 3% wt %. The “Loading (wt %), insoluble in base oil composition” value (loading marked * = Insoluble) is 5%* wt % and 10%* wt % and 15%* wt %.
